Assay results reported in ChEMBL document CHEMBL5653631, “A Potent and Selective ULK1 Inhibitor Suppresses Autophagy and Sensitizes Cancer Cells to Nutrient Stress” (iScience, 2018).
One block for each compound: values may come before it.

Experiments:
[1] = target: T1, Mitogen-activated protein kinase kinase kinase 3 (Homo sapiens) (UniProt Q99759); assay: Inhibition of human recombinant MAP3K3 at 500 nM in presence of ATP by radiometric assay relative to control
T1 sequence (whole entry): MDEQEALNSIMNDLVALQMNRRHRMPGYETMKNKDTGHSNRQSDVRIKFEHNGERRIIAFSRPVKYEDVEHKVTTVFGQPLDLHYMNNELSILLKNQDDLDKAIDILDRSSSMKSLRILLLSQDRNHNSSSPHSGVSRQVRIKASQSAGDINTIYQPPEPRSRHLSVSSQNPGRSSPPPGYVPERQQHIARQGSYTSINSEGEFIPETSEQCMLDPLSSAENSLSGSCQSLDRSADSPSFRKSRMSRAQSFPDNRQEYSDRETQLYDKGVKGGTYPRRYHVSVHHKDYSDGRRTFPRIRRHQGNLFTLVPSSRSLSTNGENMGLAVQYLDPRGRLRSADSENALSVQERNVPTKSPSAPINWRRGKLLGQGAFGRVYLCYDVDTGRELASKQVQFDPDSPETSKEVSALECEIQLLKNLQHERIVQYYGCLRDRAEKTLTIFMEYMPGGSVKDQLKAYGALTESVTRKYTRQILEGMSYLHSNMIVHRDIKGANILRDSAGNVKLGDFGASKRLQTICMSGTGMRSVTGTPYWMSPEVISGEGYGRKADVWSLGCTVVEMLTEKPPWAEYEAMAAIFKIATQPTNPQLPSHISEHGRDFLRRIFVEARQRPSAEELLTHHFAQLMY

[2] = target: Platelet-derived growth factor receptor beta (Homo sapiens) (UniProt P09619); assay: Inhibition of human recombinant PDGFRb at 15 nM related to control ULK1
[3] = target: T2, SNF-related serine/threonine-protein kinase (Homo sapiens) (UniProt Q9NRH2); assay: Inhibition of human recombinant SNRK at 40 nM in presence of ATP by radiometric assay relative to control
T2 sequence (whole entry): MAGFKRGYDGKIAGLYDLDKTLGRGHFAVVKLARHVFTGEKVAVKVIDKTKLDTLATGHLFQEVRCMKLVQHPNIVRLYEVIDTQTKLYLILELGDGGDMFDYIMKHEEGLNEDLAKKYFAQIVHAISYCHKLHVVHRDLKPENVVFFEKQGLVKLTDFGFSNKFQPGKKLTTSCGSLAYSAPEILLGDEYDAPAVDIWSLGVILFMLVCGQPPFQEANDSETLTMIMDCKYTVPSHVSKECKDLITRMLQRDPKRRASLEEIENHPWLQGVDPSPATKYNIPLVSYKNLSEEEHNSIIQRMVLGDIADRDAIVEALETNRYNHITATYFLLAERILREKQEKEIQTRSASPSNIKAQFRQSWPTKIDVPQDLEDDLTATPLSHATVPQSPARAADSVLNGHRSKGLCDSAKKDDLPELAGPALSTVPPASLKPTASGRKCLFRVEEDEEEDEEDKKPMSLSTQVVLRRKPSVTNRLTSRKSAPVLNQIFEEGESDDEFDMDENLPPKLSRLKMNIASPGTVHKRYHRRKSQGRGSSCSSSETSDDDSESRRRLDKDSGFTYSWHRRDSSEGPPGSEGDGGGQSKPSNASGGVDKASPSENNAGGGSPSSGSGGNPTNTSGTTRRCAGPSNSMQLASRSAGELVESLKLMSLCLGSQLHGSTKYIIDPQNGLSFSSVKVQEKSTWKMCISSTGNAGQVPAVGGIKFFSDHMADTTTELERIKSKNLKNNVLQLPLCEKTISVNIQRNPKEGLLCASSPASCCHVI

[4] = target: T3, Serine/threonine-protein kinase TAO1 (Homo sapiens) (UniProt Q7L7X3); assay: Inhibition of human recombinant TAO1 at 40 nM in presence of ATP by radiometric assay relative to control
T3 sequence (whole entry): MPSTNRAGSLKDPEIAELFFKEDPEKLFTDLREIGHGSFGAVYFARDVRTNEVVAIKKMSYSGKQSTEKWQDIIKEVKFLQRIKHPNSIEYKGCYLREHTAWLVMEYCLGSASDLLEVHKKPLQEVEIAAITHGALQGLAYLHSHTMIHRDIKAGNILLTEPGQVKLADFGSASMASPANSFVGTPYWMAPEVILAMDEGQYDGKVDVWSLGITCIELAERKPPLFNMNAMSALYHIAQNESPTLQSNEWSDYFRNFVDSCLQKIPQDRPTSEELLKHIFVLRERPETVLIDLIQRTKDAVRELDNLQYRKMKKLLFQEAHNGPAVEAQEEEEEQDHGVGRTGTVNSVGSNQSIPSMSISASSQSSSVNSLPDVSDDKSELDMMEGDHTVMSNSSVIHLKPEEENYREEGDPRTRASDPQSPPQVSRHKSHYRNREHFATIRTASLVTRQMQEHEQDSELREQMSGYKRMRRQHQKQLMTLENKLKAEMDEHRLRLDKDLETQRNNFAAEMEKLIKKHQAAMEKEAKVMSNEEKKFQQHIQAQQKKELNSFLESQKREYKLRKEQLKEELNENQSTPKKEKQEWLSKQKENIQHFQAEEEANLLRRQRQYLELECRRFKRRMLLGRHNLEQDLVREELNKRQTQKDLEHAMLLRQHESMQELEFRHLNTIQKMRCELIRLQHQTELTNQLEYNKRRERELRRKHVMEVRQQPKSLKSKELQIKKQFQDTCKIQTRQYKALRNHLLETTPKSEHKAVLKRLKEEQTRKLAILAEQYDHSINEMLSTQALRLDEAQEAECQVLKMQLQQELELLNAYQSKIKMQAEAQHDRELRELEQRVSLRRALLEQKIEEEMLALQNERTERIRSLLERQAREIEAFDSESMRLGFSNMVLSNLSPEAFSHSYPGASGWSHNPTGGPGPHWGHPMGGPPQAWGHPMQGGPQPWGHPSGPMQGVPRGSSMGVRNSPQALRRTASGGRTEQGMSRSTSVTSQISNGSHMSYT

Sequence of Platelet-derived growth factor receptor beta (Homo sapiens) (P09619 whole entry): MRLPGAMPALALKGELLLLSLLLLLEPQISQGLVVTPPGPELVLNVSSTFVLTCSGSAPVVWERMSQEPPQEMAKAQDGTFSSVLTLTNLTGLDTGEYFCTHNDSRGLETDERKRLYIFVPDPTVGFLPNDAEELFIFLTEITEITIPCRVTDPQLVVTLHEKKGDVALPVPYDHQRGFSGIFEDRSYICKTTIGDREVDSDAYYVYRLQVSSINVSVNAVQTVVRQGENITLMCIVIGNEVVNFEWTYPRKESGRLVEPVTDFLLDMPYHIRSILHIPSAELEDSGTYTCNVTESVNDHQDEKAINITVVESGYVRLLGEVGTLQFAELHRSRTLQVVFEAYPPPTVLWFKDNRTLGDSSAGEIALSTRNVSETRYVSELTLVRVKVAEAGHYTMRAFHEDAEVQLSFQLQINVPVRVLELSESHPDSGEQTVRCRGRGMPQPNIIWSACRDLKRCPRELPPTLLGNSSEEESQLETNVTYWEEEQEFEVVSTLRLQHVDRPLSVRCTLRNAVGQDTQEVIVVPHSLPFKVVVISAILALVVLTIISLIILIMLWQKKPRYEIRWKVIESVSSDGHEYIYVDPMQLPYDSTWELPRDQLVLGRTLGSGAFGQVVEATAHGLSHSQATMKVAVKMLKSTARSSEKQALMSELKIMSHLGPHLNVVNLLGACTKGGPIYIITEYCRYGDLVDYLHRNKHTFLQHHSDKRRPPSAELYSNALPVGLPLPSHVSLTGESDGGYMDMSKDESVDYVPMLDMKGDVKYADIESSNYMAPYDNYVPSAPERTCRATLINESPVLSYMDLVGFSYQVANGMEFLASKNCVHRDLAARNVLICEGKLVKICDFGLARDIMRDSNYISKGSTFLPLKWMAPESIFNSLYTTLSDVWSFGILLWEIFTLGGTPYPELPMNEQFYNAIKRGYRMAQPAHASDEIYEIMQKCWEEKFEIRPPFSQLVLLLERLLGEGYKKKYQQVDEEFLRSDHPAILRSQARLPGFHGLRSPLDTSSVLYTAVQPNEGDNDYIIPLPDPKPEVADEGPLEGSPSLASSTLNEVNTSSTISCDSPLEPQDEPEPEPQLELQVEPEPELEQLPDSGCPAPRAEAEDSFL

inhibition [1]: 0%
SMILES: CNC(=O)c1ccccc1Oc1nc(Nc2cc(OC)c(OC)c(OC)c2)ncc1Br

fold change (FC) [2]: 0
SMILES: CC(C)[C@H](NC(=O)c1cc(-c2cnn3cc(-c4ccc(OCCN5CCCCC5)cc4)cnc23)cs1)C(F)(F)F

inhibition [3]: 0%
inhibition [4]: 0%
SMILES: O=C(N[C@@H](C1CC1)C(F)(F)F)c1cc(-c2cnn3cc(-c4ccc(F)cc4)cnc23)cs1
